These results are taken from patent US20240327364A1, “THERAPEUTIC TARGETING OF GPR68 TO INDUCE FERROPTOSIS” (University Of Maryland, Baltimore, priority 2023, published 2024).

Test [1] has as its target T1, LTK (Homo sapiens, UniProt P29376).
T1 construct: purchased DiscoveRx
Kind of test: KinomeScan. The class given is binding. The conditions noted are these: read-out: % Control.

Test [2] concerns the target T2, HIPK1 (Homo sapiens, UniProt Q86Z02).
T2 construct: purchased DiscoveRx (Fremont, CA)
The test is described as follows: KinomeScan. The class given is binding. The conditions noted are these: read-out: % Control.

For test [3], the target named is T3, V2 (Homo sapiens, UniProt P30518).
T3 construct: host or cells: Chem-1 cells expressing Galpha15
Kind of test: GPCR Profiler. The format is cell-based.

Test [4] concerns the target T4, MST4 (Homo sapiens, UniProt Q9P289).
T4 construct: purchased DiscoveRx
The test is described as follows: KinomeScan. The class given is binding. The conditions noted are these: read-out: % Control.

Test [5] addresses T5, YANK3 (Homo sapiens, UniProt Q86UX6).
T5 construct: purchased DiscoveRx
Kind of test: KinomeScan. The class given is binding. The conditions noted are these: read-out: % Control.

Test [6] concerns the target T6, ROCK2 (Homo sapiens, UniProt O75116).
T6 construct: purchased DiscoveRx (Fremont, CA)
The test is described as follows: KinomeScan. The format is binding. Particulars: read-out: % Control.

The target of test [7] is T7, DP (Homo sapiens, UniProt Q13258).
T7 construct: host or cells: Chem-1 cells expressing Gα15
The test is described as follows: GPCR Profiler. The format is cell-based.

Test [8] addresses T8, GIP (Homo sapiens, UniProt P48546).
T8 construct: host or cells: Chem-1 cells expressing Gα15
Kind of test: GPCR Profiler. The format is cell-based.

Test [9] addresses T9, S1P3 (Homo sapiens, UniProt Q99500).
T9 construct: host or cells: Chem-1 cells with Gα15
The test is described as follows: GPCR Profiler. The class given is cell-based.

Test [10] deals with T10, FGR (Homo sapiens, UniProt P09769).
T10 construct: purchased DiscoveRx (Fremont, CA)
Kind of test: KinomeScan. The format is binding. Particulars: read-out: % Control.

Test [11] concerns the target T11, TRPM6 (Homo sapiens, UniProt Q9BX84).
T11 construct: purchased DiscoveRx (Fremont, CA)
The test is described as follows: KinomeScan. The class given is binding. The conditions noted are these: read-out: % Control.

The target of test [12] is T12, PIK3CA(H1047Y) (Homo sapiens, UniProt P42336, H1047Y).
T12 construct: purchased DiscoveRx (Fremont, CA)
The test is described as follows: KinomeScan. The format is binding. Particulars: read-out: % Control.

The test system of test [13] is U87 glioblastoma cells. Kind of test: Acid-induced calcium flux in U87 cells. The class given is cell-based, human. The conditions noted are these: medium shifted from pH 7.8 to 6.4. The source says: GPR68 is known to signal through Gq which results in a calcium flux out of the Endoplasmic reticulum. U87 glioblastoma cells were stained, using a calcium-sensitive vital dye Fluo-8, and stimulated with acidification of the media to pH6.4. The cells respond to the acidification with a burst of calcium release, this is inhibited by OGM2.
To determine if GBM cells respond to their own acidic extracellular milieu as a form of autocrine signaling, calcium release in response to acidification was measured. GPR68 is known to couple to the Gq subunit, which acts to release calcium from the ER in a PLC dependent pathway. The medium was shifted from pH 7.8 to 6.4, which triggered a rapid and robust calcium flux, as measured by the fluorescence intensity of calcium-sensitive dye Cal520-AM. This calcium flux was blocked by OGM2 and PLC inhibitor U73122. FIG. 50A, FIG. 50B, FIG. 50C and FIG. 50D.
In general terms: Calcium flux is commonly read through the fluorescence of an indicator in the cells.

In test [14] the test system is Panc02. The test is described as follows: Liperfluo lipid peroxidation. The class given is cell-based, mouse. The conditions noted are these: OGM2 and ionizing radiation. The method, then: Where appropriate, ANOVA, or student's T-test were conducted in PRISM. Chi squared T(X) was used for Liperfluo analysis. A value T(X)>4 implies that the two distributions are different with a p<0.01 (99% confidence). For drug interaction and therapeutic interaction, the coefficient of drug interaction (CDI) was calculated as follows: CDI=AB/(A×B). According to the impact of each group, AB is the value of combined treatment and A or B is the value of the single agent group to control group.
Radiation, like OGM2, induces lipid peroxidation in addition to DNA damage. OGM was tested for its ability to sensitize lung and pancreatic cancers to radiation induced lipid peroxidation and ferroptosis. Cells were incubated at 37° C. in 5% CO2 in […] DMEM with DMSO, OGM2, or Erastin for 3 days. Then 2.5 μM Liperfluo in 3 ml fresh media was added and cells were incubated at 37° C. in 5% CO2 for 1 hour. Cells were then trypsinized, pelleted, and resuspended in cell sorting media (1% BSA and 1 mM EDTA in PBS pH 7.4). A BD LSR II was used to record Ten thousand events and the data processed with FlowJo v10.8. […] All treatments were highly significant with Chi-squared >4 indicating a p<0.01.

Test [15] concerns U138 spheroids. The test is described as follows: GBM spheroid assay. The class given is cell-based, human. As to the method:
One thousand cells per well were plated in an ultra-low attachment, round-bottomed, 96-well plate, and spheroids were allowed to form for 3 days. Wells were then exposed to concentrations of vehicle, OGM2 or TMZ or a combination for 3 days. Spheroids were imaged in brightfield at 10× using z-stacks that were collapsed into z-projections in the Gen5 software using the LionheartFx (BioTek™). Automated measurements of the spheroid area were obtained using Gen5 software.
Tumor spheroid cultures are a more physiological model of tumor growth than typical 2D cell culture. Temozolomide sensitive U87 (FIG. 20A) and Temozolomide insensitive U138 (FIG. 20B) glioblastoma cell lines were plated in low attachment round bottom 96-well plates and allowed to form tumor spheroids for 3 days (T0). At T0, spheroids were imaged using Lionheart™ (HCS) High-Content Imaging Systems (Biotek™) and then were exposed to increasing doses of either Temozolomide or OGM2. After 5 days of treatment the spheroids were imaged again (T5). The size (area) of the spheroids after 5 days of treatment was quantified, and the average size of the spheroids at TO is depicted in red.

Where only a bound is given, the exact number is not on record here.

T7 sequence (Q13258 whole entry): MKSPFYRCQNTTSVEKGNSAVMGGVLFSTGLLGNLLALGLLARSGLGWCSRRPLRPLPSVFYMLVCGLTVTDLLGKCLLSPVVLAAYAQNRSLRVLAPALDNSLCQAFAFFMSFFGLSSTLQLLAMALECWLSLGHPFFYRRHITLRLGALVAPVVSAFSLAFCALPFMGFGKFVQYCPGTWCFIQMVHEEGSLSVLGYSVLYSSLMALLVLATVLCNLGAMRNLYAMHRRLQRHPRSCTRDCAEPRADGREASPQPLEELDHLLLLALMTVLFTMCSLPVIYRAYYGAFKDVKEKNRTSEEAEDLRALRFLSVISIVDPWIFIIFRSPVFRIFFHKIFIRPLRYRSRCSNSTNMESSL
T9 sequence (Q99500 whole entry, species assumed): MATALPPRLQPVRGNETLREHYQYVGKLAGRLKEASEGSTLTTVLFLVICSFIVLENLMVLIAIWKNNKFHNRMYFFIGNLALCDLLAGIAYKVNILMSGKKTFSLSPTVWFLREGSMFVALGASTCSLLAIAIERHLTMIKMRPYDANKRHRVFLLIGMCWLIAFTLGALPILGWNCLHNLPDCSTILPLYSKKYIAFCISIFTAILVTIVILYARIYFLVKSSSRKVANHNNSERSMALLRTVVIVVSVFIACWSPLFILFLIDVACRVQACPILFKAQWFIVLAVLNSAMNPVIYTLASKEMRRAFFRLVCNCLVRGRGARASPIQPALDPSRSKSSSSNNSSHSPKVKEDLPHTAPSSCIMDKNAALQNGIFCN
T8 sequence (P48546 22-466): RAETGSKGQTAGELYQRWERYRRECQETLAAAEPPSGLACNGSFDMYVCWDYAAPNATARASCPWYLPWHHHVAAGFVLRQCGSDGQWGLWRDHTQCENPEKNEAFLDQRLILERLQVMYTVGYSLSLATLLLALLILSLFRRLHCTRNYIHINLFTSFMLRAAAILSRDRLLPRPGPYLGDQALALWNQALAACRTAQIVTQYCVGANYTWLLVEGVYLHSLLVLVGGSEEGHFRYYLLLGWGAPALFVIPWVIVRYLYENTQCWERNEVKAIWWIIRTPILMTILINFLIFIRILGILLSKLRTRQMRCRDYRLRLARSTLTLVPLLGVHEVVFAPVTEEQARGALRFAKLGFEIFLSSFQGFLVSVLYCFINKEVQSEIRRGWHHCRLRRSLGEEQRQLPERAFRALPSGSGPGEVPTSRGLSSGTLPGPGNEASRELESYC
T3 sequence (P30518 whole entry): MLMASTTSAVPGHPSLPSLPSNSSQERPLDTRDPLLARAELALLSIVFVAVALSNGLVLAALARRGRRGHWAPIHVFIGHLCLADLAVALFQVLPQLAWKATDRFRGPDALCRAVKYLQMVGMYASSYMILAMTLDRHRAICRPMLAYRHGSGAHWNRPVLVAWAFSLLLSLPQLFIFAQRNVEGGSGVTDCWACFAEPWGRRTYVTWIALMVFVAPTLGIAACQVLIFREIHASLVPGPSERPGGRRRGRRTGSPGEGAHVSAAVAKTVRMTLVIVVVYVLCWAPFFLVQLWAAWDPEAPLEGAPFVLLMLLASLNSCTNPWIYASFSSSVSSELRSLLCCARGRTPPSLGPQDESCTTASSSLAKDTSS
T4 sequence (Q9P289 whole entry): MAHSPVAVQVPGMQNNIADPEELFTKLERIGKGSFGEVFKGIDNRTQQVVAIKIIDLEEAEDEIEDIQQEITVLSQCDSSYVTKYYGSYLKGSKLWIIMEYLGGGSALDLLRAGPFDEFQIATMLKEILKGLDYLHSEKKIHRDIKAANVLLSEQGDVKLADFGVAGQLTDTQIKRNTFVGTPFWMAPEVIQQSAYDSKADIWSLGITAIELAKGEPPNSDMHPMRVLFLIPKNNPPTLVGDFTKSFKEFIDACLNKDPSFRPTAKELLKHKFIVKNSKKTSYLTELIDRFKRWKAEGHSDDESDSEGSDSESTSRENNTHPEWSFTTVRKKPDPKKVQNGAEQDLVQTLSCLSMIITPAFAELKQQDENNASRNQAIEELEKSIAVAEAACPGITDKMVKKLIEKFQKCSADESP
T2 sequence (Q86Z02 whole entry): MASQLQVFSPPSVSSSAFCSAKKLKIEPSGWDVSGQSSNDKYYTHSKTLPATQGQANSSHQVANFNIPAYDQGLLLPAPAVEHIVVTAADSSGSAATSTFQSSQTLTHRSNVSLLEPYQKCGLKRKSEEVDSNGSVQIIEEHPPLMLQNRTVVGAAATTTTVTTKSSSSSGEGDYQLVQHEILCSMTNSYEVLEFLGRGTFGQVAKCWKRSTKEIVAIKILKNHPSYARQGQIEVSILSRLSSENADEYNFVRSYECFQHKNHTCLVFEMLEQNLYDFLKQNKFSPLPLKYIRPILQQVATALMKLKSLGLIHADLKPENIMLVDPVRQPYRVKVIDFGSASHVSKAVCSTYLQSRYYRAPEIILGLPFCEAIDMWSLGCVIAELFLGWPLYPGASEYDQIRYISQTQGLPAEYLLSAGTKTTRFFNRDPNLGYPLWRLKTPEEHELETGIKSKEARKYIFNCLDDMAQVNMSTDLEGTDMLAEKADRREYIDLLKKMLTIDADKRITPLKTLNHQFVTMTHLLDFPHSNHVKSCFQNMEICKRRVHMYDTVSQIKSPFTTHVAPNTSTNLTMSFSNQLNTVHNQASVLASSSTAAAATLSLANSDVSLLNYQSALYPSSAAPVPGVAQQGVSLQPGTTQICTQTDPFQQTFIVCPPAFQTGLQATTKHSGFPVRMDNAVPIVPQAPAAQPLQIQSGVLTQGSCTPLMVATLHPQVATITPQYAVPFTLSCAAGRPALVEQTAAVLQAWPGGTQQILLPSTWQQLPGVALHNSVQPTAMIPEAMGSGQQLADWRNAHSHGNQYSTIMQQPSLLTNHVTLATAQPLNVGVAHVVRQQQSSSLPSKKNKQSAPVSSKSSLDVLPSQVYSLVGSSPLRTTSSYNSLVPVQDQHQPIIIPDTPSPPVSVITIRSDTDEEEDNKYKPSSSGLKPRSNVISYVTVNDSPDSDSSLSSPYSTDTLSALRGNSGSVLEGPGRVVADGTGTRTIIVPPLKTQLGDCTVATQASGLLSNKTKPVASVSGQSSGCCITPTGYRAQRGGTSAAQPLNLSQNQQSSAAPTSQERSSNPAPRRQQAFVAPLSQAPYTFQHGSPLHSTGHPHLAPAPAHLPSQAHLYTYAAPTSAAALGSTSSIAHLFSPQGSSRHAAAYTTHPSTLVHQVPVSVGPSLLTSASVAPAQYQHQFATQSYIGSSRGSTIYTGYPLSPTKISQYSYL
T12 sequence (P42336 whole entry H1047Y): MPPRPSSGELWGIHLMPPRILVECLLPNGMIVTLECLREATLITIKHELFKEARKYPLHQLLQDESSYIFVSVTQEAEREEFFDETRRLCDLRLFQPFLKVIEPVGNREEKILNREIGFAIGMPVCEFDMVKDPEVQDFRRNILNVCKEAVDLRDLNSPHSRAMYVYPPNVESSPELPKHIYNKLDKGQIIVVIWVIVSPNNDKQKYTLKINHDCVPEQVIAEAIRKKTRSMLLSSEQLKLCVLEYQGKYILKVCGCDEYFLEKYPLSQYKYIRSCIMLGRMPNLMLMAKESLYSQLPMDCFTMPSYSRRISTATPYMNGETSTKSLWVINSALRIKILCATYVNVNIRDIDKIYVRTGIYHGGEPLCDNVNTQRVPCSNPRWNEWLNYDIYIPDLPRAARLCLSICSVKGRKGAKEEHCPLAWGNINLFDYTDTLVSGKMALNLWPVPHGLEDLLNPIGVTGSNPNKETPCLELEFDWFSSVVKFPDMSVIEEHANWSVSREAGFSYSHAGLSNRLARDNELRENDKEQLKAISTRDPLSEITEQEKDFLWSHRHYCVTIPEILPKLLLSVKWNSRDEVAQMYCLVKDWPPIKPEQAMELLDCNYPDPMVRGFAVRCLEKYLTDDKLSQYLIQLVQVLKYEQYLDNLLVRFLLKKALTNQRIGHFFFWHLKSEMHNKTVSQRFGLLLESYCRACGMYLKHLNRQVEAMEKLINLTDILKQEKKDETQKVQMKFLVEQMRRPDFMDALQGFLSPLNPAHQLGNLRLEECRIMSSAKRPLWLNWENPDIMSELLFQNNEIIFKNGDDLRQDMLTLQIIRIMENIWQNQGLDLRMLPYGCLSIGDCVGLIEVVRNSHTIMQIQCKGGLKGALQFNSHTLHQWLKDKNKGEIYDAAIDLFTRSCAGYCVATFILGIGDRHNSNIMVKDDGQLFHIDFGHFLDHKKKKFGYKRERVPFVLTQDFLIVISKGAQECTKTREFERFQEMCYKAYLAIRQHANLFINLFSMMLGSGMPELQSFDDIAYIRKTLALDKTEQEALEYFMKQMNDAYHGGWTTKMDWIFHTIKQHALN
T10 sequence (P09769 whole entry): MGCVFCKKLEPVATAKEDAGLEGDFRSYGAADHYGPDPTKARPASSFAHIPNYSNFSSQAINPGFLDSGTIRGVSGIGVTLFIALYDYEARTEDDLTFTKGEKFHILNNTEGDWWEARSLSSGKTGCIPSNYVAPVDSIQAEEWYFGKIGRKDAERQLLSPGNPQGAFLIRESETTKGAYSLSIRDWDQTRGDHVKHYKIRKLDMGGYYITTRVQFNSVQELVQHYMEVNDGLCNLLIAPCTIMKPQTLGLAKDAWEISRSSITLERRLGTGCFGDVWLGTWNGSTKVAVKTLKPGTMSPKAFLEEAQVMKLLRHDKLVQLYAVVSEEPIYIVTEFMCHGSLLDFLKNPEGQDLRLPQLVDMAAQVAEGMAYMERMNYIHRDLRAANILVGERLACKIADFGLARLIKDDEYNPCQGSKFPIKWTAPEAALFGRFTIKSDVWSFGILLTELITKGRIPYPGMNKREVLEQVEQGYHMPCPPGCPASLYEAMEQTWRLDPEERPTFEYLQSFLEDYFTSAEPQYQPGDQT

For the compound `CCc1ccc2c(c1)C1(NN=C(c3cccc4ccccc34)S1)C(=O)N2` (stereo not shown) [OGM1, 5-ethyl-5′-naphthalen-1-ylspiro[1H-indole-3,2′-3H-1,3,4-thiadiazole]-2-one], the remaining binding at 10 µM in test [1] came out at 100%; in test [2] it was 99%; in test [4], 81%; in test [5], 100%; in test [6], 73%; in [10], 100%. Moreover, the remaining binding at 10 µM in [11] was found to be 80%; in [12] it was 59%. The Antagonism in test [3] (10 uM) is 2.9; in [7] (10 uM), −11.7; in test [8] (10 uM), 0.2; in test [9] (10 uM), −3.7. The Agonism was found to be 0.6 in [3] (12.5 uM), 0.8 in test [7] (12.5 uM), 1.5 in test [8] (12.5 uM) and 0.2 in [9] (12.5 uM).
As to `CCc1ccc2c(c1)C1(NN=C(c3ccccc3)S1)C(=O)N2` (stereo not shown) [OGM2], in [13], the acid-induced calcium flux entry is listed as “blocked”. The “CDI, lipid peroxidation” value in test [14] is reported as < 0.232. Further, in [15], the “growth of 3D spheroids” value was “significantly decreased the growth of U138 3D spheroids”.
